This is an account of results in patent US20150216870A1, “Combination of PI3K Inhibitor and C-Met Inhibitor” (Novartis AG, priority 2012, published 2015).

Each structure is given as a SMILES string.

Series [1] is described as follows: Toxicity (deaths) in U-87 MG xenograft study. In kind it is in vivo. From the text: Animals are weighed on Days 1-5, on each treatment day (except weekends), and twice weekly thereafter, until the end of the study. Group mean BW nadir determinations exclude measurements taken after more than 50% of the assessable mice in the group had exited the study, and also excluded any animal that was classified as an NTR death during the study. Acceptable toxicity for the maximum tolerated dose (MTD) is defined as a group mean BW loss of less than 15% during the test, and not more than one TR death among ten animals. Any animal with BW losses exceeding 15% for three consecutive measurements, or with a BW loss exceeding 20% for one measurement, are euthanized, and classified as a TR death unless it was the first death in the group. A death is classified as Non-Treatment Related (NTR) if there was no evidence that the death is related to treatment side effects and the death occurs more than 14 days after dosing ended. NTR deaths are categorized as NTRa (due to accident or error), NTRu (due to unknown causes), or NTRm (necropsy-confirmed tumor dissemination by invasion and/or metastasis). To conserve animals while providing maximum information, the first death in a group was classified as NTRu; such an NTR death was to be reclassified as TR if two subsequent TR deaths are recorded in the same group.

Series [2] has as its system U-87 MG human glioblastoma xenograft. The series can be described thus: U-87 MG xenograft tumor growth inhibition and tumor growth delay. In kind it is in vivo, nude mice. The settings on record: for T/C or T/T0: D13; for Median TTE: endpoint 2000 mm3; for Regress.: PR: number of animals. The procedure:
In this experiment, the U-87 MG human glioblastoma xenograft model is used to assess the anti-tumor efficacy of the PI3K inhibitor COMPOUND C and c-Met inhibitor 2-fluoro-N-methyl-4-[7-quinolin-6-yl-methyl)-imidazo[1,2-b][1,2,4]triazin-2yl]benzamide as single agents or in combination. U-87 MG tumor cells obtained from the National Cancer Institute are reported to be homozygous for likely oncogenic variants of CDKN2A, CDKN2C, CDKN2a, and PTEN; no mutations are detected in MET, PIK3CA, or 58 other genes that are frequently altered in neoplastic cells; and HGF expressing.
Mice are treated daily for 21 days with 17.7 and 35.3 mg/kg of the c-Met inhibitor and 32.7 mg/kg COMPOUND C monotherapies, and with the c-Met inhibitor/COMPOUND C dual therapy at 17.7:32.7. An c-Met inhibitor/COMPOUND C combination at the 58.8:5.4 mg/kg dose ratio was included in the study. The control mice received both vehicles, and a standard preclinical temozolomide regimen monitored tumor model performance. The oral treatments began on Day 1 (D1) in nude mice with established subcutaneous tumors. Each animal was euthanized when its tumor reached the predetermined 2000 mm3 endpoint volume, or on D60, whichever came first. The study was terminated on D51. […] Overall efficacy was determined from the times required for tumors to progress to the volume endpoint, and from D51 survival and regression rates. This report describes the methods and results of the U87MG-e326 tumor growth delay experiment.
The animals are fed ad libitum water (reverse osmosis, 1 ppm CI) and NIH 31 Modified and Irradiated Lab Diet® consisting of 18.0% crude protein, 5.0% crude fat, and 5.0% crude fiber. The mice are housed on irradiated Enrich-O'cobs™ Laboratory Animal Bedding in static microisolators on a 12-hour light cycle at 20-22° C. (68-72° F.) and 40-60% humidity.
The U-87 MG tumor line is obtained from the American Type Culture Collection and maintained by serial engraftment in nude mice. A tumor fragment (1 mm^3) is implanted subcutaneously into the right flank of each test mouse. Tumors are calipered in two dimensions to monitor growth as their mean volume approached the desired 100-150 mm^3 range. Tumor size, in mm^3, was calculated from: Tumor Volume=(width^2×length)/2, where width and length (in mm) are measurements of the tumor. Tumor weight can be estimated with the assumption that 1 mg is equivalent to 1 mm^3 of tumor volume. Fourteen days after tumor cell implantation, on D1 of the study, mice with individual tumor volumes of 63-196 mm^3 are sorted into seven groups, with group mean tumor volumes of 122-127 mm^3.
The c-Met inhibitor 2-fluoro-N-methyl-4-[7-quinolin-6-yl-methyl)-imidazo[1,2-b][1,2,4]triazin-2yl]benzamide (di-HCl salt, 84.98% free base) is stored at 4° C. and is added to deionized water at 2× the final concentration and sonicated until dissolved. An equal volume of 0.5% methylcellulose and 0.1% Tween® 80 in deionized water is added to provide a 5.884 mg/mL dosing solution in 0.25% methylcellulose and 0.05% Tween® 80 in deionized water (Vehicle 1). Portions of this solution are diluted with Vehicle 1 to provide 3.53 and 1.765 mg/mL dosing solutions.
COMPOUND C (HCl salt, 91.85% free base) is stored at −20° C. and is added to 1% Tween® 80 in deionized water and sonicated to obtain a uniform suspension at 2× the final concentration. […] The 0.544 mg/mL dosing suspension is obtained by diluting a portion of the first suspension with Vehicle 2.

Series [3] has as its system LN-229. The series can be described thus: CellTiter-Glo cell viability dose matrix in LN-229 glioblastoma cells. The settings on record: LN229 (PTEN wildtype, HGF low). In kind it is cell-based, human.
Experimental: The PI3K inhibitor COMPOUND C and the c-MET receptor tyrosine kinase inhibitor 2-fluoro-N-methyl-4-[7-quinolin-6-yl-methyl)-imidazo[1,2-b][1,2,4]triazin-2yl]benzamide are evaluated in combination in glioblastoma tumor models. COMPOUND C (10 mM) and 2-fluoro-N-methyl-4-[7-quinolin-6-yl-methyl)-imidazo[1,2-b][1,2,4]triazin-2yl]benzamide (10 mM) are dissolved in DMSO, and are stored in aliquots at −20° C.
Human Glioblastoma cell lines, U-87 MG (PTEN mutant and HGF expressing line), H4 (PTEN mutant and HGF expressing line), A172 (PTEN mutant line with low HGF expression level) and LN-229 (PTEN wildtype and HGF low) are purchased from American Type Cell Collection and are maintained in a humidified incubator at 37° C. in 5% CO2 in recommended media. All four cell lines express detected MET at the mRNA level.
The cells are passaged twice a week and the medium is changed every 2 to 3 days. […]
Cell viability is determined by measuring cellular ATP content using the CellTiter-Glo® (CTG) luminescent cell viability assay (Promega). […] An equal volume of the CTG reagents is added to each well at the end of the compound treatment and luminescence is recorded on an Envision plate reader (Perkin Elmer). Reduced and enhanced luminescent signal values (responses) are calculated relative to untreated (control) cells. […]
Where [4] appears, read: c-Met inhibitor 17.7 mg/kg p.o. qd x21.
[5] abbreviates: c-Met inhibitor 35.3 mg/kg p.o. qd x21.
[6] abbreviates: c-Met inhibitor 17.7 mg/kg (15 mg/kg free base) p.o. qd x21.
[7] abbreviates: c-Met inhibitor 35.3 mg/kg (30 mg/kg free base) p.o. qd x21.

Take `CNC(=O)c1ccc(-c2cnc3ncc(Cc4ccc5ncccc5c4)n3n2)cc1F` [c-Met inhibitor]: the Deaths entry in series [1] (setting [4]) and in series [1] (setting [5]) was “(0)” in each case. In addition, the “increase of median TTE” value in series [2] (c-Met inhibitor 15 mg/kg free base p.o. qd x21) came to 21.4 days; in series [2] (c-Met inhibitor 30 mg/kg free base p.o. qd x21), 23.4 days. Further, the “% TGD” value in series [2] (setting [6]) is listed as 183%; in series [2] (setting [7]), 200%. The “T/C or T/T0” value in series [2] (setting [6]) was 5%; in series [2] (c-Met inhibitor 17.7 mg/kg (15 mg/kg free base) p.o. qd x21, listed as c-Met inh.) it was 5%; in series [2] (setting [7]), 1%; in series [2] (c-Met inhibitor 35.3 mg/kg (30 mg/kg free base) p.o. qd x21, listed as c-Met inh.), 1%. The “Median TTE” value in series [2] (setting [6]) was determined as 33.1 days; in series [2] (setting [7]), 35.1 days. Also, the “Regress.: PR” value in series [2] (setting [4]) and in series [2] (setting [5]) was 4 PR throughout. The “anti-proliferative activity (single agent)” value in series [3] is “completely inactive”.
